Source: patent publication US9723843B2, “Family of silver (I) periodate compounds having broad microbial properties” (Innovotech, Inc., priority 2011, dated 2017)
Where two headings read alike, the source gives them in different places.

Key:
[1] = Procedure: The purpose of this study was to determine the stability of Ag5IO6 at various temperatures independent of hydrolytic or photolytic effects, in order to obtain an understanding of its storage stability, and also to perform differential scanning calorimetry and thermal gravimetry.
• i. Ag5IO6 was made fresh, a sample was submitted for XRD analysis (Day 0), and then additional samples were placed at room temperature, 40° C., 54° C., and 90° C. for 14 and 28 days in amber glass vials placed in CO2 impermeable foil pouches with desiccant packs. After the allotted time period, the samples were submitted for XRD. • Samples were submitted for DSC/TGA to measure thermal stability.

[2] = remark: listed apart in the source
Procedure: The purpose of this study was to develop a basic understanding of the solubility (and stability) of Ag5IO6 in pure water and 0.9% (physiological saline), following OECD Method (105)—flask.
• 1. About 0.1 g Ag5IO6 was weighed into 6 100 mL volumetric flasks. • 2. The flasks were filled to volume with ddH2O or 0.9% saline. • 3. The vessels were tightly stoppered and then agitated using a shaker in an incubator at 30° C. for approximately 24 hours. • 4. After 24 hours, two of the vessels (one per solvent) were equilibrated for 24 h at the test temperature (20° C., using a water bath) with occasional shaking. • 5. Pictures were obtained of the solutions and solid present. • 6. The contents of the vessels were then centrifuged at the test temperature (20° C.). • 7. The concentration of the test substance in the clear aqueous phase was determined by atomic absorption spectroscopy. • 8. The pH of the solution was measured using a pH meter. • 9. Triplicate samples of the solution were analyzed by UV-Vis spectroscopy. • 10. A sample of the solid material was collected by vacuum filtration, allowed to dry on the filter for 15 minutes, then transferred to a watch glass and placed in the fume hood to dry overnight. The sample was then packaged in a glass vial covered in aluminum foil and submitted for XRD analysis. • 11. The procedures of steps 4-10 were repeated for the second and third flask, after an initial equilibration at 30° C. for two and three days, respectively. Results

[3] = greater than 1.3 million lux hours exposure
Source text: The purpose of this study was to assess the photostability of Ag5IO6 in accordance with the FDA's 1997 recommendations regarding the photostability testing of new products.
The samples were then submitted for XRD.

[4] = room temperature
Procedure: The purpose of this study was to determine whether or not Ag5IO6 interacts with methanol, tetrahydrofuran, acetone, and acetonitrile.
• i. […] of Ag5IO6 was placed in a vial, 2 mL of the solvent was added, and the vial was placed in a TAM III for an isothermal run at room temperature for >24 h with solvent only as the reference. The heat flow was measured. • ii. After the run was complete, the solvents were allowed to flash off and the solids collected were submitted to XRD. • iii. Samples exposed following essentially the same method for only 18 h were also submitted for XRD.

Structure (SMILES): [Ag+].[Ag+].[Ag+].[Ag+].[Ag+].[O-][I+]([O-])([O-])([O-])([O-])[O-] [Ag5IO6, pentasilver hexaoxoiodate]
- composition after storage (XRD) ([1]; 90° C., 14 and 28 days): 100 % Ag5IO6
- grain size ([1]; 90° C., Day 14): 62 Å
- grain size ([1]; 90° C., Day 28): 94 Å
- grain size ([1]; Day 0): 14 Å
- temperature up to which stable ([1]; powder): > 400 °C
- time stable at 90° C. ([1]; powder, 90° C.): > 28 days
- temperature up to which stable ([1]; powder, listed as Ag5IO6 powder): up to 440 °C
- shelf life at room temperature ([1]; suggested by stability at 54° C. for 28 days): > 2 years
- solubility in saline ([2]; 0.9% saline, 20° C., calculated assuming that all Ag in solution is due to Ag5IO6): 0.61 ± 0.05 µg/mL
- solubility in ddH2O ([2]; ddH2O, 20° C., calculated assuming that all Ag in solution is due to Ag5IO6): 24.41 ± 0.87 µg/mL
- solid material converted to Ag metal (XRD) ([2]; in ddH2O): 0.1%
- solid material remained as Ag5IO6 (XRD) ([2]; in ddH2O): approximately 99.9%
- solid material converted to AgCl (XRD) ([2]; in saline, solid collected at the end of the experiment): approximately 25%
- pH in saline ([2]; solution over Ag5IO6 in 0.9% saline): 10
- pH in ddH2O ([2]; solution over Ag5IO6 in ddH2O): 8
- composition after light exposure (XRD) [3]: 100 % Ag5IO6
- onset of significant reaction ([4]; THF): ~56 h
- onset of significant reaction ([4]; acetonitrile (slower onset)): ~56 h
- time blended with solvents without substantial reaction ([4]; all solvents (methanol, tetrahydrofuran, acetone, acetonitrile)): < 18 h
- onset of significant reaction ([4]; methanol): ~33 h
